Experimental data as given in PubChem BioAssay (NCI).
Values joined by “and” are separate entries in the source; they are usually repeats but may differ in a detail not shown here. Identical values can stand only once.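 How tested: cells in 96-well plates exposed to compound for 48 hours at five concentrations. Abbreviation: GI50, concentration required for 50% inhibition of growth. Definition used: TGI = concentration required for complete inhibition of growth.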

Key:
Assay in all cases: growth of human tumour cells (NCI), 48 h
HCC-2998 colon = tested on: HCC-2998 colon
KM12 colon = tested on: KM12 colon
SK-MEL-2 melanoma = tested on: SK-MEL-2 melanoma
HOP-92 NSCLC = tested on: HOP-92 NSCLC
SN12C renal = tested on: SN12C renal
CAKI-1 renal = tested on: CAKI-1 renal
A549 NSCLC = tested on: A549 NSCLC
NCI-H23 lung = tested on: NCI-H23 lung
CCRF-CEM leukemia = tested on: CCRF-CEM leukemia
UO-31 renal = tested on: UO-31 renal

Row | Compound | TGI (HCC-2998 colon) | TGI (KM12 colon) | TGI (SK-MEL-2 melanoma) | TGI (HOP-92 NSCLC) | TGI (SN12C renal) | TGI (CAKI-1 renal) | TGI (A549 NSCLC) | TGI (NCI-H23 lung) | TGI (CCRF-CEM leukemia) | TGI (UO-31 renal) | GI50 (HCC-2998 colon) | GI50 (KM12 colon) | GI50 (SK-MEL-2 melanoma) | GI50 (HOP-92 NSCLC) | GI50 (SN12C renal) | GI50 (CAKI-1 renal) | GI50 (A549 NSCLC) | GI50 (NCI-H23 lung) | GI50 (CCRF-CEM leukemia) | GI50 (UO-31 renal)
1 | O=C(Nc1cc(Cl)c(Cl)cc1Cl)C(=O)C1C=CCS1(=O)=O (configuration not stated) | > 100 µM | > 100 µM | > 100 µM | > 100 µM | > 100 µM | > 100 µM | > 100 µM | > 100 µM | > 100 µM | > 100 µM |  |  |  |  |  |  |  |  |  | 
2 | COc1ccc(NC(=O)C(=O)C(C(=O)c2ccccc2)C2OC(=O)c3ccccc32)c([N+](=O)[O-])c1 (configuration not stated) | > 100 µM | > 100 µM | > 100 µM | > 100 µM | > 100 µM | > 100 µM | > 100 µM | > 100 µM | > 100 µM | > 100 µM |  |  |  |  |  |  |  |  |  | 
3 | C=C1C(=O)O[C@H]2[C@H]1CC/C(CNC(=O)c1cc3cc(OC)ccc3[nH]1)=C\CC[C@@]1(C)O[C@@H]21 | 3.26 µM | 17.7 µM | 5.24 µM | 3.35 µM | 4.87 µM | 6.25 µM | 14.4 µM | 4.38 µM | 5.93 µM | 2.64 µM | 1.66 µM | 4.98 µM | 2.18 µM | 1.56 µM | 1.7 µM | 1.97 µM | 3.69 µM | 1.77 µM | 1.97 µM | 1.27 µM
4 | CC1=C(C(=O)Nc2ccccc2C)C(c2ccc(Cl)c(Cl)c2)C(C(=O)Nc2ccccc2C)=C(C)N1 | 69.9 µM | 87.4 µM | 33.6 µM | 33.4 µM | 47.2 µM | > 100 µM | > 100 µM | 56.7 µM | 54.8 µM | > 100 µM |  |  |  |  |  |  |  |  |  | 
5 | CC(C)CS(=O)(=O)/C(=C(\c1ccc(Br)cc1)S(=O)(=O)CC(C)C)c1ccc(Br)cc1 | > 100 µM | > 100 µM | > 100 µM | > 100 µM | > 100 µM | > 100 µM | > 100 µM | > 100 µM | > 100 µM | > 100 µM |  |  |  |  |  |  |  |  |  | 
6 | CCOC(=O)NC(=O)c1cn(CC(=O)NCC(=O)NCC(=O)NCCCN2CCN(CCCNC(=O)CNC(=O)CNC(=O)Cn3cc(C(=O)NC(=O)OCC)c(=O)[nH]c3=O)CC2)c(=O)[nH]c1=O | > 100 µM | > 100 µM | > 100 µM | > 100 µM | > 100 µM | > 100 µM | > 100 µM | > 100 µM | > 100 µM | > 100 µM |  |  |  |  |  |  |  |  |  | 
7 | COc1ccc(CN(C)c2ccc(CO)c(Cl)c2)cc1 | 71.2 µM | > 92.8 µM | 38.7 µM | 45.3 µM | > 100 µM | > 64.1 µM | 55.6 µM | > 100 µM | > 100 µM | 92.2 µM | 13.7 µM | 24.6 µM | 8.37 µM | 4.7 µM | 21.5 µM | 3 µM | 5.75 µM | 12.9 µM | 32.9 µM | 9.38 µM
8 | O=C1c2ccccc2C(=O)N1CCCSc1ccccc1 | > 100 µM | > 100 µM | > 100 µM | > 100 µM | > 100 µM | > 100 µM | > 100 µM | > 100 µM | > 100 µM | > 100 µM |  |  |  |  |  |  |  |  |  | 
9 | CCCCCCCCC[C@@H]1CC(=O)OCC2OC(O[C@H](CCCCCCCCC)CC(=O)OCC3OC(O[C@H](CCCCCCCCC)CC(=O)OCC4OC(O1)C(O)C(O)C4O)C(O)C(O)C3O)C(O)C(O)C2O (some centres not stated) | 24.7 µM | 20.2 µM | 22.3 µM | 22.6 µM | 28 µM | 14.9 µM | 29.4 µM | 30.6 µM | 19.4 µM | 24.6 µM |  |  |  |  |  |  |  |  |  | 
10 | COc1cc(C(=O)/C(C)=C/c2c[nH]c3ccccc23)cc(OC)c1OC | > 100 µM |  | 15.2 µM | 2.33 µM | > 100 µM | > 100 µM | > 100 µM | > 100 µM | > 100 µM | > 100 µM | 0.0043 µM | 0.00359 µM | 0.0123 µM | 0.074 µM |  | 0.00421 µM | 0.0041 µM | 0.00516 µM | 0.00511 µM | 0.00796 µM
11 | ClCc1cccc(Cn2cnc3c(NC45CC6CC(CC(C6)C4)C5)ncnc32)c1 | 32.2 µM | 30.6 µM | 48.1 µM | 34.5 µM | 50.9 µM | 33.2 µM | > 60.1 µM | 46.4 µM | > 69.1 µM | 31.4 µM | 16.7 µM | 14.6 µM | 16.7 µM | 17.3 µM | 21.2 µM | 16.8 µM | 21.7 µM | 19.6 µM | 16 µM | 14.5 µM
12 | Cc1[nH]c2ccccc2c1C1Cc2ccccc2N1C(=O)/C=C\C(=O)O (configuration not stated) | > 100 µM | > 100 µM | 39.6 µM | 76.6 µM | > 100 µM | > 100 µM | > 100 µM | > 100 µM | 94.1 µM | > 100 µM |  |  |  |  |  |  |  |  |  | 
13 | COc1ccc([N+](=O)[O-])c2c(NCCCN(C)C)c3ccccc3nc12 | 0.0727 µM | 0.509 µM | 0.281 µM | 0.4 µM | 1.43 µM | 5.7 µM | 0.895 µM | 0.402 µM | > 100 µM | 1.15 µM |  |  |  |  |  |  |  |  |  | 
14 | COc1cc(OC)cc(C2CC(=O)Nc3c2c(C)nn3-c2nc3ccccc3[nH]2)c1 (configuration not stated) | 56.5 µM | 7.68 µM | 5.88 µM | 6.63 µM | > 100 µM | 11 µM | 15.5 µM | 7.73 µM | > 100 µM | 11.4 µM | 3.7 µM | 2.79 µM | 2.42 µM | 2.59 µM | 3.46 µM | 3.36 µM | 3.18 µM | 2.79 µM | 0.792 µM | 3.22 µM
15 | CC(=O)c1c(C)[nH]c(-c2nc3ccc(N4CCN(C)CC4)cc3[nH]2)c1-c1ccc(OCC2CCOCC2)cc1 | 3.31 µM | 14.6 µM | 16.5 µM | 2.79 µM | 17.4 µM | 12.6 µM | 17.8 µM | 18.3 µM | > 47.1 µM | 6.81 µM | 0.766 µM | 0.924 µM | 2 µM | 0.11 µM | 1.31 µM | 0.326 µM | 0.714 µM | 1.32 µM | 0.654 µM | 0.207 µM
16 | COC(=O)c1cc2c(cc1Cl)SC(N(N(C)C)S(=O)(=O)c1ccc(Br)s1)=NS2(=O)=O | 40.6 µM | 74.4 µM | 9.66 µM | 36.7 µM | > 100 µM | 60.7 µM | > 100 µM | 70.9 µM | 72.5 µM | 81.3 µM | 19.7 µM | 24.8 µM | 3.2 µM | 18.5 µM | 30.5 µM | 28.3 µM | 32 µM | 28.5 µM | 23.1 µM | 27.3 µM
17 | O=c1ccn(C2OC(CO)C(O)C2F)c(=O)[nH]1 (configuration not stated) | > 100 µM | > 1000 µM | > 1000 µM | > 1000 µM | > 1000 µM | > 100 µM | > 1000 µM | > 1000 µM | > 1000 µM | > 1000 µM |  | > 1000 µM | > 1000 µM | > 1000 µM | > 1000 µM | > 88.9 µM | > 1000 µM | > 1000 µM |  | > 1000 µM
18 | CCNC(=O)CCN(C(=O)O)S(=O)(=O)c1ccc(NC(=O)c2ccccc2)cc1 | > 100 µM | > 100 µM | > 100 µM | > 100 µM | > 100 µM | > 100 µM | > 100 µM | > 100 µM | > 100 µM | > 100 µM |  |  |  |  |  |  |  |  |  | 
19 | c1ccc2c(c1)CCC/C2=N\OCC1CO1 (configuration not stated) | > 100 µM | > 100 µM | > 100 µM | > 100 µM | > 100 µM | > 100 µM | > 100 µM | > 100 µM | > 100 µM | > 100 µM |  |  |  |  |  |  |  |  |  | 
20 | O=C1c2ccccc2-c2c1c1ccccc1c(=O)n2CCCNCCCn1ccnc1 | 2.38 µM | 2.41 µM | 8.17 µM | 7.57 µM | 1.29 µM | 2.95 µM | 20.1 µM | 1.53 µM | 1.71 µM | > 100 µM | 0.894 µM | 0.593 µM | 2.56 µM | 0.95 µM | 0.367 µM | 0.446 µM | 1.02 µM | 0.411 µM | 0.246 µM | 1.23 µM
21 | CN[C@@H](C)C(=O)N[C@H](C(=O)N1CCC[C@H]1C(=O)N[C@H]1c2ccccc2C[C@H]1OCC#CC#CCO[C@@H]1Cc2ccccc2[C@@H]1NC(=O)[C@@H]1CCCN1C(=O)[C@@H](NC(=O)[C@H](C)NC)C1CCCCC1)C1CCCCC1 | 4.45 µM | 7.96 µM | 3.02 µM | 2.48 µM | 21.6 µM | > 100 µM | 31.5 µM | 6.98 µM | 4.27 µM | > 59.3 µM | 1.77 µM | 2.66 µM | 1.18 µM | 0.479 µM | 7.95 µM | > 68.2 µM | 15.5 µM | 0.796 µM | 1.1 µM | > 44.2 µM
22 | CCN(CC)CCCC(C)Nc1c2ccc(Cl)cc2nc2ccc(OC)cc12 (configuration not stated) | 2.9 µM and 2.69 µM | 7.83 µM and 5.14 µM | 3.17 µM | 3.17 µM and 2.53 µM | 7.16 µM and 9.28 µM | 4.37 µM and 4.5 µM | 3.68 µM and 3.64 µM | 4.11 µM and 3.27 µM | 7.62 µM and 5.45 µM | 3.12 µM and 5.49 µM |  | 2.39 µM |  | 0.811 µM | 1.59 µM | 1.99 µM |  |  | 1.48 µM | 1.52 µM
